Test results: PMC6467542 (Bioorganic & Medicinal Chemistry, 2019)
≈ marks a conversion by molar mass, not a printed value.

Legend:
M. tb (strain H37Rv) [1] = test: MIC90 against replicating M.tb (MABA); assay type: cell-based, Mycobacterium tuberculosis; conditions: Mycobacterium tuberculosis, aerobic (replicating) conditions, 90% inhibition of growth
[2] = Cytotoxicity in Vero cells; assay type: cell-based; conditions: green monkey, Vero green monkey-derived epithelial kidney cells
M. tb (strain H37Rv) [3] = test: MIC90 against non-replicating M.tb (LORA); assay type: cell-based, Mycobacterium tuberculosis; conditions: Mycobacterium tuberculosis, H37RV, read-out: MIC90 LORA
Description: In these assays, 1 is a potent inhibitor, with MICs of 0.08 and 0.12 µg/mL, respectively. Replacement of the naphthalene C-unit of 1 with various pyridyls produced analogues of considerably lower lipophilicity, with clogP values ranging from 6.89 down to 2.98.

CYP3A4 = CYP3A4 (Homo sapiens, UniProt P08684); test: Inhibition of CYP 3A4; assay type: in vitro ADME
in vitro [4] = conditions: mouse, microsomes
in vitro [5] = conditions: human, microsomes
hERG potassium channel = hERG potassium channel (Homo sapiens, UniProt Q12809); test: Inhibition of hERG potassium current (patch clamp electrophysiology); conditions: for IC50: read-out: hERG IC50, manual patch clamp, 5-concentration dose-response; for hERG % inhibition at 3 µM: manual or (less accurate) QPatch assay
[6] = mouse, in vivo
M.tb = test: Efficacy in a mouse model of TB (lung CFU reduction); assay type: in vivo; conditions: Mycobacterium tuberculosis, inhaled or nasal, 288 h; read-out: Log reduction in colony-forming units (CFU), new compound
in vivo = conditions: mouse, iv

hERG potassium channel, sequence (Q12809 whole entry): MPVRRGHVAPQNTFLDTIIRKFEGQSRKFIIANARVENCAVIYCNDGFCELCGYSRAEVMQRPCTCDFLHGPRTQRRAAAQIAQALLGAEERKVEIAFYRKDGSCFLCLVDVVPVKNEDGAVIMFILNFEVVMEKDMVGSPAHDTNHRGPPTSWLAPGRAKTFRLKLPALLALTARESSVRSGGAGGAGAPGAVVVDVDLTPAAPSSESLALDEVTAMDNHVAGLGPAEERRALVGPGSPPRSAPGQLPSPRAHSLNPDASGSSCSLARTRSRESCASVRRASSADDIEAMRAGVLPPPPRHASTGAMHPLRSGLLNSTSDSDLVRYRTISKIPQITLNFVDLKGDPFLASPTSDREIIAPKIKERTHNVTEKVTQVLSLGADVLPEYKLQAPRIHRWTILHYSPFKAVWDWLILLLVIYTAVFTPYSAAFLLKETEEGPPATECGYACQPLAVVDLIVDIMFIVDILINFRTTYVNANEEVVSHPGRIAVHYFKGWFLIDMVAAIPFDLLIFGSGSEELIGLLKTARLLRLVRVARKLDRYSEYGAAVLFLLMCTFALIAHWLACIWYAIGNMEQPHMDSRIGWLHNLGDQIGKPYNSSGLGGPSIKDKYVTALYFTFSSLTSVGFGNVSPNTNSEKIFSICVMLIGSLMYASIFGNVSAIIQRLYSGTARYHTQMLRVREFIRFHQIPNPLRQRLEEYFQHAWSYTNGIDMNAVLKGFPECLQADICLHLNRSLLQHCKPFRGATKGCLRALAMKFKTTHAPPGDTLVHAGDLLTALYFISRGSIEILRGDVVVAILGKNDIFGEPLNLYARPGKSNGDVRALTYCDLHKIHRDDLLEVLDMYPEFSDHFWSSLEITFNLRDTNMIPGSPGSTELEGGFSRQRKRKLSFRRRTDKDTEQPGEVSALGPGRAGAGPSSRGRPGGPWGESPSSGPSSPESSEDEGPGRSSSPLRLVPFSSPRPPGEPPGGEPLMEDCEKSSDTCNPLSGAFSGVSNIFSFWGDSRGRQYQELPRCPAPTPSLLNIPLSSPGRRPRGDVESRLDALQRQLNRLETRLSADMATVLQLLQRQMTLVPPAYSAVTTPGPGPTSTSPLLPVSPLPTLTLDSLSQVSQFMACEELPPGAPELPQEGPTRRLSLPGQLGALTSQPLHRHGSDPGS
CYP3A4, sequence (P08684 whole entry): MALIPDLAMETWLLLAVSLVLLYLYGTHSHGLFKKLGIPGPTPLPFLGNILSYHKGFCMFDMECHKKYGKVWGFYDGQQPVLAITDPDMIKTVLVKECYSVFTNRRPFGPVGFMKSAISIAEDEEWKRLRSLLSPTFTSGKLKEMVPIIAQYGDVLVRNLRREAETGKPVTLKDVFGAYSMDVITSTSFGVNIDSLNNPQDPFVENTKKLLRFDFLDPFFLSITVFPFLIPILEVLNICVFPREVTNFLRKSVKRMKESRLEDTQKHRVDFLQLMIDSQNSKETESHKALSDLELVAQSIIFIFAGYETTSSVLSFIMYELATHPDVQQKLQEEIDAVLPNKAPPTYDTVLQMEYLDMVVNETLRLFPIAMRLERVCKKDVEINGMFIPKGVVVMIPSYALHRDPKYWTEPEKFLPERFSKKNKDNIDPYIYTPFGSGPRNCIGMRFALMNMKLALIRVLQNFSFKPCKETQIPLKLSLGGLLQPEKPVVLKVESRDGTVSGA

Compound `COc1nc2ccc(Br)cc2cc1[C@@H](c1ccccc1)[C@@](O)(CCN(C)C)c1cccc2ccccc12` [Compound 1, Bedaquiline, reference compound] has an MIC90 (M. tb (strain H37Rv) [1]) of 0.08 µg/mL (≈ 0.144 µM), an IC50 [2] of 4 to 16 µg/mL (≈ 7.2 to 28.8 µM) and an MIC90 (M. tb (strain H37Rv) [3]) of 0.12 µg/mL (≈ 0.216 µM).
With `COc1cccc(C(O)(CCN(C)C)C(c2cc3cc(Br)ccc3nc2OC)c2cccc3c2OCO3)n1` (centres unmarked) [Compound 15] the MIC90 (M. tb (strain H37Rv) [1]) was 0.54 µg/mL (≈ 0.93 µM), the IC50 (CYP3A4) was 7600 nM and the microsomal CLint (in vitro [4]) was 25 µL/min/mg. The microsomal CLint (in vitro [5]) was 8 µL/min/mg, the IC50 (hERG potassium channel) was 240 nM and the “AUC: exposure, AUCinf” value [6] was 5600 ng·h/mL. The “IV Cl: IV clearance” value [6] was 13 mL/min/kg, the “Vz: IV apparent volume of distribution during terminal phase” value (“Vz: IV apparent volume” for short) [6] was 10 L/kg and the “F: oral bioavailability” value [6] was 45%. The log reduction at 20 mg/kg (M.tb) was 0.3 and the MIC90 (M. tb (strain H37Rv) [3]) was 0.58 µg/mL (≈ 0.999 µM).
In the case of `COc1nc2ccc(Br)cc2cc1C(c1cccc(C)c1)C(O)(CCN(C)C)c1cccnc1C` (centres unmarked) [Compound 19], the MIC90 (M. tb (strain H37Rv) [1]) is reported as 0.15 µg/mL (≈ 0.281 µM), the microsomal CLint (in vitro [4]) is reported as 71 µL/min/mg and the microsomal CLint (in vitro [5]) is reported as 35 µL/min/mg. For the same compound, the “hERG % inhibition at 3 µM” value (hERG potassium channel) was 26%/3, the “AUC: exposure, AUCinf” value [6] was 400 ng·h/mL and the “IV Cl: IV clearance” value [6] was 59 mL/min/kg. For the same compound, the “Vz: IV apparent volume” value [6] was 33 L/kg, the “F: oral bioavailability” value [6] was 10% and the MIC90 (M. tb (strain H37Rv) [3]) was 0.25 µg/mL (≈ 0.468 µM). The clearance (in vivo) was over 50 mL/min/kg.
For `COc1cccc(C(c2cc3cc(Br)ccc3nc2OC)C(O)(CCN(C)C)c2ccc(C)nc2)c1F` (centres unmarked) [Compound 22], the MIC90 (M. tb (strain H37Rv) [1]) was 0.3 µg/mL (≈ 0.528 µM), the microsomal CLint (in vitro [4]) was 99 µL/min/mg and the microsomal CLint (in vitro [5]) was 24 µL/min/mg. For the same compound, the “hERG % inhibition at 3 µM” value (hERG potassium channel) was 17%/3, the “AUC: exposure, AUCinf” value [6] was 250 ng·h/mL and the “IV Cl: IV clearance” value [6] was 67 mL/min/kg. For the same compound, the “Vz: IV apparent volume” value [6] was 10 L/kg, the “F: oral bioavailability” value [6] was 8% and the MIC90 (M. tb (strain H37Rv) [3]) was 0.28 µg/mL (≈ 0.493 µM). It also gave a clearance (in vivo) of over 50 mL/min/kg.
Compound `COc1cccc(C(c2cc3cc(Br)ccc3nc2OC)C(O)(CCN(C)C)c2cc(C)cnc2C)c1OC` (centres unmarked) [Compound 33] has an MIC90 (M. tb (strain H37Rv) [1]) of 0.07 µg/mL (≈ 0.118 µM), a microsomal CLint (in vitro [4]) of 17 µL/min/mg and a microsomal CLint (in vitro [5]) of 7 µL/min/mg. For the same compound, the IC50 (hERG potassium channel) was 1100 nM, the “AUC: exposure, AUCinf” value [6] was 1390 ng·h/mL and the “IV Cl: IV clearance” value [6] was 79 mL/min/kg. For the same compound, the “Vz: IV apparent volume” value [6] was 77 L/kg, the “F: oral bioavailability” value [6] was 72% and the log reduction at 20 mg/kg (M.tb) was 3.5. It also gave an MIC90 (M. tb (strain H37Rv) [3]) of 0.11 µg/mL (≈ 0.185 µM) and a clearance (in vivo) of over 50 mL/min/kg.
`COc1cccc(C(c2cc3cc(Br)ccc3nc2OC)C(O)(CCN(C)C)c2cnc(C)cc2C)c1OC` (centres unmarked) [Compound 38] gave an MIC90 (M. tb (strain H37Rv) [1]) of 0.02 µg/mL (≈ 0.0336 µM), a microsomal CLint (in vitro [4]) of 46 µL/min/mg and a microsomal CLint (in vitro [5]) of 13 µL/min/mg. For the same compound, the IC50 (hERG potassium channel) was 3900 nM, the “AUC: exposure, AUCinf” value [6] was 2080 ng·h/mL and the “IV Cl: IV clearance” value [6] was 28 mL/min/kg. For the same compound, the “Vz: IV apparent volume” value [6] was 23 L/kg, the “F: oral bioavailability” value [6] was 34% and the log reduction at 20 mg/kg (M.tb) was 0.7. The MIC90 (M. tb (strain H37Rv) [3]) was 0.24 µg/mL (≈ 0.404 µM).
With `COc1nc2ccc(Br)cc2cc1C(c1cccc(C)c1)C(O)(CCN(C)C)c1cccnc1OC` (centres unmarked) [Compound 39] the MIC90 (M. tb (strain H37Rv) [1]) was 0.13 µg/mL (≈ 0.236 µM), the microsomal CLint (in vitro [4]) was 20 µL/min/mg and the microsomal CLint (in vitro [5]) was 10 µL/min/mg. For the same compound, the IC50 (hERG potassium channel) was 450 nM, the “AUC: exposure, AUCinf” value [6] was 2510 ng·h/mL and the log reduction at 20 mg/kg (M.tb) was 0.6. It also gave an MIC90 (M. tb (strain H37Rv) [3]) of 0.14 µg/mL (≈ 0.254 µM).
